Assays:
[1] = tested on: HEI-OC1 cell line; test: Evaluation of SIRT expression level in animal cells (Western blotting); assay type: cell-based, mouse; details: 1 to 30 μM, cultured 24 hours, compared with absence of the compound
Method: A mouse inner ear cell line (HEI-OC1 cell line) was seeded in a dish containing 10 mL of a culture medium (low glucose DMEM medium [glucose concentration of […]] supplemented with 10% by weight of FBS) at 1×10^6 cells/dish and cultured. One day after, 0.1% DMSO, which is a solvent for the compounds, or various concentrations (1 μM, 3 μM, 10 μM, or 30 μM) of three compounds (racemic form of MA5, S(+) form of MA5, or R(−) form of MA5) were added, and the cells were cultured for 24 hours. After the culture was completed, the cells were collected, the cells were disrupted by a conventional method, and the expression levels of various SIRTs (SIRT1, SIRT2, SIRT3, SIRT5, SIRT6, and SIRT7) in the cells were analyzed by Western blotting (see FIGS. 12 to 14 [FIG. 12-1 to FIG. 14-2]).

[2] = tested on: MT-ND3 mutant cell line; test: Cytotoxicity evaluation 2: cell survival level by MTT assay (Cell Counting Kit-8); assay type: cell-based, human; details: high concentrations (30 μM and 100 μM), cultured 5 days
Method: Hereinafter, the present invention will be described more specifically with reference to Examples, but the technical scope of the present invention is not limited to these Examples. The INS-1E cell line was cultured in an incubator (37° C., 21% O2, 5% CO2) in the presence of RPMI-1640 Medium (manufactured by GIBCO) containing 11.1 mM glucose, 10% FBS, 1 mM sodium pyruvate, 10 mM HEPES, 2 mM glutamine, 50 μM β-mercaptoethanol, penicillin at 100 U/mL, and streptomycin at 100 μg/mL (hereinafter simply referred to as “RPMI-1640 Medium”). […]
An MT-ND3 mutant cell line was seeded in a 96-well plate at 2×10^3 cells per well and cultured for 2 days in the presence of DMEM Low Glucose culture medium, then 0.1% DMSO, which is a solvent for the compounds, or various concentrations (0.003 μM, 0.01 μM, 0.03 μM, […], 0.3 μM, 1 μM, 3 μM, 10 μM, 30 μM, or 100 μM) of each enantiomer (S(+) form or R(−) form) of MA5 was added, the cells were further cultured for 5 days, and then the cell survival level was measured. Specifically, the cell survival level was measured by an MTT assay using Cell Counting Kit-8 (manufactured by Dojindo Laboratories). That is, 100 μL of Cell Count Reagent SF was added to each well, incubated for 2 hours, and stirred for 3 seconds with a microplate reader, and the absorbance at 450 nm (reference: 750 nm) was measured (see FIG. 4). […]

[3] = tested on: immt-1/mitofilin mutant; test: Evaluation of mitochondrial function: mitochondrial swelling in body wall muscle cells; assay type: in vivo, C. elegans; details: immt-1/mitofilin mutants, 10 μM, raised 5 days from L4 larval stage, compared with control DMSO
Method: It has been reported that in immt-1-deficient mutant C. elegans (hereinafter referred to as “immt-1/mitofilin mutant”), which is a C. elegans ortholog of the mitochondrial inner membrane protein (Mitofilin), mitochondria in muscle cells swell (see the literature “Journal of Cellular Physiology. 224 (2010) 748-756” and the literature “Molecular Biology of the Cell. 22 (2011) 831-841.”). Therefore, when three compounds (racemic form of MA5, S(+) form of MA5, or R(−) form of MA5) were administered to immt-1/mitofilin mutants, whether or not mitochondrial swelling was alleviated was analyzed.
As a comparative control, ccIs4251 wild-type C. elegans (obtained from CGC [Caenorhabditis Genetics Center]) was raised on a culture plate and analyzed in the same manner.

| Compound | expression levels of the various SIRTs (SIRT1, SIRT2, SIRT3, SIRT5, SIRT6, and SIRT7) in the cells [1] | viable cell level [2] | number of swelling mitochondria per body wall muscle cell [3] | proportion of body wall muscle cells in which 5 or more swelling mitochondria per body wall muscle cell were observed [3] |
| --- | --- | --- | --- | --- |
| O=C(C[C@H](C(=O)O)c1c[nH]c2ccccc12)c1ccc(F)cc1F [S(+) form of MA5, 4-(2,4-difluorophenyl)-2-(1H-indol-3-yl)-4-oxo-butanoic acid] | increased | no decrease in viable cell level was observed | greatly decreased | greatly decreased |
| O=C(C[C@@H](C(=O)O)c1c[nH]c2ccccc12)c1ccc(F)cc1F [R(−) form of MA5, 4-(2,4-difluorophenyl)-2-(1H-indol-3-yl)-4-oxo-butanoic acid] | remained almost unchanged | a significant decrease in viable cell level was observed | remained almost unchanged or only slightly decreased | remained almost unchanged or only slightly decreased |

Reference: patent publication US20240270692A1, “S(+) FORM OF 4-(2,4-DIFLUOROPHENYL)-2-(1H-INDOL-3-YL)-4-OXO-BUTANOIC ACID” (TOHOKU UNIVERSITY, priority 2021, published 2024)
